“Also recorded” adds a separate entry of the source. Read-outs that look alike come from different tables or passages of the source. One block for each molecule: values may come before it.
What was measured:
MetAP2 [1] = molecular target: T1, MetAP2 (Homo sapiens, UniProt P50579); experiment: MetAP2 enzyme inhibition, coupled-enzyme chromogenic assay; format: biochemical
T1 construct: gp67 secretion signal of vector pAcGP67B (N); made in house; host or cells: baculovirus-infected Sf9 insect cells, secreted into medium
Description: (§1) A coupled-enzyme chromogenic assay was used to measure methionine aminopeptidase activity by monitoring the production of free methionine cleaved from specific peptide substrates containing methionine. […] Other peptides can be used including dimeric, tetrameric, pentameric, hexameric, heptameric, nonameric, decameric, and undecameric peptides. […] Free methionine was oxidized with L-amino acid oxidase (AAO, Sigma Catalog No. A-9378) and horseradish peroxidase (HRP, Sigma Catalog No. P-8451). Oxidation by AAO of free methionine generates hydrogen peroxide (H2O2) which then reacts with HRP oxidizing 0-dianisidine (Sigma Catalog No. D-1954) or 10-acetyl-3,7-dihydrophenoxazine (Amplex Red, Molecular Probes). Assays were performed in 96-well microtiter plates. Enzyme preparations were diluted in assay buffer (50 mM HEPES, pH 7.4, 100 mM NaCl), and 10 μl of the enzymes were introduced into each well. A mixture (90 μl) of 0.1 mg/ml L-amino acid oxidase, 0.1 mg/ml of horseradish peroxidase, 0.1 mg/ml ortho-dianisidine, and 0.5 mM peptide substrate was added to each cell. The reactions were carried out at room temperature, and the absorbance at 450 nanometer (A450) was measured every 20 seconds over a period of twenty minutes using an automatic plate reader (Molecular Devices, Calif., USA). The rate in mOD/min, calculated for each well, was used to represent MetAP1 or MetAP2 activity. Under this assay condition, the methionine cleaved from peptide substrate by MetAP1 or MetAP2 was instantaneously oxidized to generate a final A450 readout.
(§2) The cellular activity of A-357300 was tested in HMVEC grown in complete EGM2 medium enriched with a combination of growth factors (vascular endothelial growth factor (VEGF), basic fibroblast growth factor (bFGF), epidermal growth factor (EGF), and insulin-like growth factor (IGF)) and fetal bovine serum. […] To determine that the cellular effect of A-357300 was through inhibition of cellular MetAp2, HMVEC were incubated with the MetAP2 inhibitors fumagillin and A-357300 for 4 hours before ^35S-methionine was added to the culture. After another 2-hour incubation, cellular proteins were collected and applied to a reactive dye-agarose column as described in Example 6. MetAP2 specific substrates (GAPDH and other cellular proteins with a N-terminal cleavable initiator methionine) were captured on the agarose column.

HMVEC = experiment: 3-day HMVEC proliferation assay; format: cell-based, human
Method: as §2

cellular MetAP2 = molecular target: T2, cellular MetAP2 (Homo sapiens, UniProt P50579); experiment: Cellular MetAP2 activity (unprocessed initiator methionine of cellular proteins) in HMVEC; format: cell-based; settings: for inhibition of cellular MetAP2 activity / initiator methionine processing: HMVEC
T2 construct: host or cells: HMVEC
Method: Human microvascular endothelial cells (HMVEC) (Clonetics, San Diego, Calif.) were grown in EGM2 recommended medium (Wang et al., J. Cell. Biochem. 77: 465-473, 2000). Cells in T75 flasks at approximately 70% confluence were changed to 15 ml EGLM (labeling medium, Clonetics) without added methionine. Fumagillin (Sigma Catalog No. F-6771) or A310840 (Abbott Laboratories, Abbott Park, Ill.) was added to the culture to final concentrations of 1 nM (fumagillin) or 0.5, 2 and 5 μM (A310840). The cells and inhibitors were incubated for four hours before adding 0.5 mCi/flask of ^35S-methionine (Amersham, Piscataway, N.J.). The cells were allowed further incubation for two hours, washed and lysed in 1 ml M-per (Pierce, Rockford, Ill.) buffer. The lysate samples having the same amount of radioactivity were loaded to a 0.5 ml column of Reactive Blue 72-agarose (Sigma, St. Louis, Mo.) equilibrated with 20 mM Tris/HCl, pH 7.5, 150 mM NaCl. The columns were washed with 30 ml equilibrium buffer, and then incubated with 3 ml of 100 nM MetAP2 in equilibration/washing buffer for 20 minutes at room temperature. The MetAP2 cleaved radioactivity (unprocessed initiator methionine) was then counted.
as §2

HMVEC cells = experiment: Penetration and accumulation into HMVEC cells; format: in vitro ADME, human
MetAP1 [2] = molecular target: T3, MetAP1 (Homo sapiens, UniProt P53582); experiment: Metal dependence and baseline activity of MetAP1, chromogenic assay; format: biochemical
T3 construct: histidine tag (N); gp67 secretion signal of vector pAcGP67B (N); made in house; host or cells: baculovirus-infected Sf9 insect cells, secreted into medium
Description: as §1
Both MetAP1 and MetAP2 need the presence of a metal in the active site for optimal activity, and have previously been classified as Co^2+, metalloproteases (Arfin et al, 1995; Li and Chang, 1996). […] Calcium chloride (Ca^2+), cobalt chloride (Co^2+), cupric chloride (Cu^2+), ferrous chloride (Fe^2+), magnesium chloride (Mg^2+), manganese chloride (Mn^2+), nickel chloride (Ni^2+), or zinc chloride (Zn^2+) was included in each assay at final concentrations of 0, 0.1, 1, 10, 100, 1000, and 10,000 μM in the assay buffer (50 mM HEPES, pH 7.4, 100 mM NaCl).

MetAP2 [3] = molecular target: T1, MetAP2; experiment: Metal dependence and baseline activity of MetAP2, chromogenic assay; format: biochemical
Description: as §1
Both MetAP1 and MetAP2 need the presence of a metal in the active site for optimal activity, and have previously been classified as Co^2+, metalloproteases (Arfin et al, 1995; Li and Chang, 1996). […]

MetAP1 [4] = molecular target: T3, MetAP1; experiment: Metal dependence of MetAP1 in the presence of glutathione, radioactive methionine assay; format: biochemical; settings: 5 mM glutathione
Method: Fmoc-L-Lys(biotinyl) —OH was purchased from Bachem (King of Prussia, Pa.). Fmoc-L-[methyl-^3H]Methionine was synthesized by reacting Fmoc-Cl with L-[methyl-^3H]Methionine (Amersham, Piscataway, N.J.) in a 1:1 Dioxane/10% Na2CO3(aq) mixed solvent. The peptides were deprotected and cleaved from the resin using a trifluoroacetic acid solution containing water, thioanisole, and ethanedithiol (900 μl:25 μl:50 μl:25 μl) as scavengers. The peptides were purified by HPLC using a Waters C18 Symmetry column (7.8×300 mm, 7 μm; Milford, Mass.). […] The resulting amount of cleaved radioactive methionine is directly proportional to the catalytic activity of the MetAP. […] (See U.S. Pat. No. 6,156,495 for a discussion of labels and uses thereof). Conversely, anything impairing the catalytic activity of MetAP (e.g., inhibitory agents, wrong metal cofactor) will result in a decreased amount of free radioactive methionine.
To study the effect of metal ions in the presence of physiologically relevant reduced glutathione (GSH) (Walker and Bradshaw, 1998), the assay measuring radioactive methionine release from a peptide described in Example 3.2 was used because GSH affected the coupled enzyme chromogenic assay.

HMVEC/HUVEC = experiment: Cell proliferation inhibition; format: cell-based; settings: Homo sapiens, read-out: IC50s of proliferation inhibition
Method: as §2

A549 = experiment: Cell proliferation inhibition; format: cell-based; settings: Homo sapiens, Tumor cells, read-out: IC50s of proliferation inhibition
Description: (§3) Table 2 summarizes the selectivity of MetAP2 inhibitors in inhibiting the proliferation of endothelial cells and certain tumor cells. Proliferation of endothelial cells of various origins, normal human primary cells pf non-EC type, and tumor cell lines were studied with MetAP2 inhibitors A-357300 and fumagillin. […] Most tumor cells were […] while some were resistant.

Astrocytes = experiment: Cell proliferation inhibition; format: cell-based; settings: Astrocyte, Normal human primary cells, read-out: IC50s of proliferation inhibition
Description: as §3

BAEC (bovine) = experiment: Cell proliferation inhibition; format: cell-based; settings: Bos taurus, EC, read-out: IC50s of proliferation inhibition
Description: as §3

BEND3 (mouse) = experiment: Cell proliferation inhibition; format: cell-based; settings: EC, read-out: IC50s of proliferation inhibition
Description: as §3

CHP-134 = experiment: Cell proliferation inhibition; format: cell-based; settings: Homo sapiens, Tumor cells, read-out: IC50s of proliferation inhibition
Description: as §3

DLD-1 = experiment: Cell proliferation inhibition; format: cell-based; settings: Homo sapiens, Tumor cells, read-out: IC50s of proliferation inhibition
Description: as §3

Fibroblasts = experiment: Cell proliferation inhibition; format: cell-based; settings: Fibroblast, Normal human primary cells, read-out: IC50s of proliferation inhibition
Description: as §3

HCT-15 = experiment: Cell proliferation inhibition; format: cell-based; settings: Homo sapiens, Tumor cells, read-out: IC50s of proliferation inhibition
Description: as §3

HT-1080 = experiment: Cell proliferation inhibition; format: cell-based; settings: Homo sapiens, Tumor cells, read-out: IC50s of proliferation inhibition
Description: as §3

Human CEC = experiment: Cell proliferation inhibition; format: cell-based; settings: EC, read-out: IC50s of proliferation inhibition
Description: as §3

MCF7 = experiment: Cell proliferation inhibition; format: cell-based; settings: Homo sapiens, Tumor cells, read-out: IC50s of proliferation inhibition
Description: as §3

MDA-435-LM = experiment: Cell proliferation inhibition; format: cell-based; settings: Homo sapiens, Tumor cells, read-out: IC50s of proliferation inhibition
Description: as §3

MDA-MB = experiment: Cell proliferation inhibition; format: cell-based; settings: Tumor cells, read-out: IC50s of proliferation inhibition
Description: as §3

Mammary Epithelial cells = experiment: Cell proliferation inhibition; format: cell-based; settings: Normal human primary cells, read-out: IC50s of proliferation inhibition
Description: as §3

MiaPaCa2 = experiment: Cell proliferation inhibition; format: cell-based; settings: Homo sapiens, MIA PaCa-2, Tumor cells, read-out: IC50s of proliferation inhibition
Description: as §3

NCI-H460 = experiment: Cell proliferation inhibition; format: cell-based; settings: Homo sapiens, Tumor cells, read-out: IC50s of proliferation inhibition
Description: as §3

PC3 = experiment: Cell proliferation inhibition; format: cell-based; settings: Homo sapiens, PC-3, Tumor cells, read-out: IC50s of proliferation inhibition
Description: as §3

[5] = tested on: Prostate Epithelial cells; experiment: Cell proliferation inhibition; format: cell-based; settings: Normal human primary cells, read-out: IC50s of proliferation inhibition
Description: as §3

T-lymphocytes = experiment: Cell proliferation inhibition; format: cell-based; settings: T-lymphocyte, Normal human primary cells, read-out: IC50s of proliferation inhibition
Description: as §3

MetAP2 [6] = molecular target: T1, MetAP2; experiment: Kinetic constants of MetAP2 with Mn2+ on peptide substrates (chromogenic assay); format: biochemical; settings: MetAP2 with 100 μM Mn2+
Description: as §1, with “A mixture (90 μl) of 0.1 mg/ml L-amino acid oxidase, 0.1 mg/ml of horseradish peroxidase, 0.1 mg/ml ortho-dianisidine, and 0.5 mM peptide substrate was added to each cell.” left out

T1 sequence (P50579 whole entry): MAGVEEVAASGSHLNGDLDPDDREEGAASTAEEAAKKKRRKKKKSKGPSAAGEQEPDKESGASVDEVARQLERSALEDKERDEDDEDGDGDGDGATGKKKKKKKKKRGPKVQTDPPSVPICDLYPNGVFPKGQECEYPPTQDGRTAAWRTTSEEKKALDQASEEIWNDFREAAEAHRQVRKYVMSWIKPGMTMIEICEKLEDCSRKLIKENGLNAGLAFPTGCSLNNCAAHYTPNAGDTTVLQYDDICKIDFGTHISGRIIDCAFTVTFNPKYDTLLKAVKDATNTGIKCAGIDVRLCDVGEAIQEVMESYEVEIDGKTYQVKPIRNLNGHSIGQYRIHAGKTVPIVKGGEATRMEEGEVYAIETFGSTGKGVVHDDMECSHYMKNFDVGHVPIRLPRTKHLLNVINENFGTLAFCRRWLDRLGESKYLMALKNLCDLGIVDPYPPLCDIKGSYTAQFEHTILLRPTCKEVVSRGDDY
T2 sequence (P50579 whole entry): as above

inhibition of MetAP2-Mn2+ (MetAP2 [1]; Mn2+ as metal cofactor): did not inhibit | fold less active as inhibitor of MetAP2 with Mn2+ (MetAP2 [1]; Mn2+ form versus baseline, Co2+ and other metal forms): 1000 fold | IC50 (MetAP2 [1]; other metal ions including Zn2+, Fe2+, and Ni2+, read-out: IC50 on MetAP2 with many other metal ions): 10 to 117 nM | IC50 (MetAP2 [1]; without added metals, read-out: IC50 on the baseline activity of MetAP2): 60 nM | inhibition of cellular MetAP2 activity / initiator methionine processing (cellular MetAP2): did not inhibit | processing of protein initiator methionine in HMVEC (cellular MetAP2; treatment up to 10 μM): not blocked | penetration and accumulation into HMVEC cells (HMVEC cells): able to penetrate and accumulate
Molecule: c1ccc2cc(CSc3nnc[nH]3)ccc2c1 [A310840, 3-((2-naphthylmethyl)sulfanyl)-4H-1,2,4-triazole]
inhibition of HMVEC cell proliferation (HMVEC): did not inhibit

Molecule: [Cl][Co][Cl] [Co^2+, cobalt chloride]
stimulation of MetAP1 activity (MetAP1 [2]; MAS substrate): about 2 fold | stimulation of MetAP1 activity (MetAP1 [2]; MGAQFSKT substrate): 5 fold | metal concentration of maximum effect on MetAP2 (MetAP2 [3]): 10 µM | effect on MetAP1 activity (MetAP1 [4]): stimulatory

effect on MetAP1 activity (MetAP1 [4]): stimulatory
Molecule: [Cl][Fe][Cl] [Fe^2+, ferrous chloride]

Molecule: CO[C@@H]1[C@H](OC(=O)/C=C/C=C/C=C/C=C/C(=O)O)CC[C@]2(CO2)[C@H]1[C@@]1(C)O[C@@H]1CC=C(C)C [Fumagillin, fumagillin]
inhibition of MetAP2 with all metal ions (MetAP2 [1]; all metal ions): inhibited MetAP2 with all metal ions | inhibition of HMVEC cell proliferation (HMVEC; 1 nM): inhibition of cell proliferation | unprocessed N-terminal initiator methionine of cellular proteins in HMVEC (cellular MetAP2; 1 nM): increased; also recorded: accumulation of unprocessed N-terminal methionine | inhibition of cellular MetAP2 activity / initiator methionine processing (cellular MetAP2): inhibition; also recorded: able to block | IC50 (HMVEC/HUVEC): 1 nM | IC50 (A549): 2 nM | IC50 (Astrocytes): > 1000 nM | IC50 (BAEC (bovine)): 1 nM | IC50 (BEND3 (mouse)): 2 nM | IC50 (CHP-134): 1 nM | IC50 (DLD-1): 2 nM | IC50 (Fibroblasts): > 1000 nM | IC50 (HCT-15): 3 nM | IC50 (HT-1080): 1 nM | IC50 (Human CEC): 1 nM | IC50 (MCF7): > 1000 nM | IC50 (MDA-435-LM): > 1000 nM | IC50 (MDA-MB): > 1000 nM | IC50 (Mammary Epithelial cells): > 1000 nM | IC50 (MiaPaCa2): > 1000 nM | IC50 (NCI-H460): 3 nM | IC50 (PC3): > 1000 nM | IC50 [5]: > 1000 nM | IC50 (T-lymphocytes): 8300 nM

Molecule: [Cl-].[Cl-].[Zn+2] [Zn^2+, zinc chloride]
effect on MetAP1 activity (MetAP1 [4]): showed the best activity

Molecule: MGKVKVG
Km (MetAP2 [6]): 215 µM | kcat (MetAP2 [6]): 9.563 s⁻¹

Molecule: manganese chloride [Mn^2+]
stimulation of MetAP1 activity (MetAP1 [2]; MAS substrate): about 2 fold | stimulation of MetAP1 activity (MetAP1 [2]; MGAQFSKT substrate): 3 fold | metal concentration of maximum effect on MetAP2 (MetAP2 [3]): 1 µM | concentration that fully stimulated human MetAP2 activity (MetAP2 [3]; in the presence and absence of physiological concentrations of GSH): 1 µM

From patent US20040077031A1, “Novel methionine aminopeptidase-2 and uses thereof” (priority 2002, published 2004)
